Results on 13 molecules are retold here after US7507860B2 (Pfizer Inc., priority 2004, dated 2009).

Numbering of substitutions follows the chain as printed. Read-outs that look alike come from different tables or passages of the source. A value given as a limit tells only on which side of the number the result lay.

Assay [1] deals with T1, human androgen receptor (hAR) (Homo sapiens, UniProt P10275).
T1 construct: made in house; host or cells: baculovirus/Sf9 insect cells (crude extract)
T1 sequence (P10275 1-920): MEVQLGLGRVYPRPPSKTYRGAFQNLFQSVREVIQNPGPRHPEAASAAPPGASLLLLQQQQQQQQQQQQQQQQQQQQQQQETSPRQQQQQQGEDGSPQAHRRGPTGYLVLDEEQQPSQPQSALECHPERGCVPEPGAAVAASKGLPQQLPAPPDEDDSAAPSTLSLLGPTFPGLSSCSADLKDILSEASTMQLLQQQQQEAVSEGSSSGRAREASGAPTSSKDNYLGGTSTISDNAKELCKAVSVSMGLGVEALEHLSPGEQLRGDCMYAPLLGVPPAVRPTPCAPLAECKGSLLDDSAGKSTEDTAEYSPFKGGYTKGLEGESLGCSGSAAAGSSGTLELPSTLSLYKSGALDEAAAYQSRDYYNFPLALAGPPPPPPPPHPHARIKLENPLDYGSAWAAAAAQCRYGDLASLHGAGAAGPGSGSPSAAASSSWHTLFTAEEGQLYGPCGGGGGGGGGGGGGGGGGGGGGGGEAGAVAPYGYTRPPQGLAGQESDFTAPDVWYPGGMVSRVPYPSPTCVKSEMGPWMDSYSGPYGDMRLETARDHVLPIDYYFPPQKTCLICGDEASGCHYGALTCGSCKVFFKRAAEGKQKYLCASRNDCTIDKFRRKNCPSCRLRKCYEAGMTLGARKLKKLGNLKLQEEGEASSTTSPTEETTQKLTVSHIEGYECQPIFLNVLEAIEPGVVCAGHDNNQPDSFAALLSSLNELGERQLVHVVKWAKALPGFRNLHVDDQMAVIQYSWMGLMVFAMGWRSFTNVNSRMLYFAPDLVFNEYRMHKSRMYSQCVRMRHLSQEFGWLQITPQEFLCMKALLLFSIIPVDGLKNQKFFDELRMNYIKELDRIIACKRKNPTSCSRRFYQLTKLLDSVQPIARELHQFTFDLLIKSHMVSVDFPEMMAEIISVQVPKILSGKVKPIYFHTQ
Nature of the assay: Competitive binding analysis on baculovirus/Sf9 generated hAR extracts with 3H-DHT tracer. The conditions noted are these: hAR extract, 1 nM 3H-DHT, one hour at 4° C, mean of multiple tests. Put shortly:
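Baculovirus/Sf9-expressed hAR extract incubated with hydroxylapatite, 1 nM 3H-DHT and decreasing compound concentrations for 1 h at 4 °C, then washed three times to remove unbound tracer. Bound 3H-DHT compared with no-competitor maximum; affinity given as concentration inhibiting half of maximum binding, mean of multiple tests.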

For the next assay, the target named is T2, androgen receptor (Homo sapiens, UniProt P10275).
T2 sequence (P10275 1-920 Q868H): T1 sequence (P10275 1-920) with Q868H
Nature of the assay: AR antagonist cell assay (MDA-MB453-MMTV clone 54-19 luciferase reporter, 100 pM DHT). Type of assay: cell-based. Put shortly: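 MDA-MB453 cells stably carrying an MMTV-ARE firefly luciferase reporter were plated overnight at 10,000/well in phenol-red-free, charcoal-stripped serum medium. Cells were stimulated with 100 pM DHT (final) for 17 hr at 37 °C, and AR antagonism was read as luciferase signal; values are means of multiple tests.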
In general terms: A reporter such as luciferase makes a cellular process visible.

[2] abbreviates: MDA-MB453-MMTV clone 54-19, inhibition of 100 pM DHT induction, 17 hr; mean of multiple tests; read-out: AR Cell IC50.
Setting [3] is: read-out: AR Cell IC50; MDA-MB453-MMTV clone 54-19, inhibition of 100 pM DHT induction, 17 hr; mean of multiple tests.

What is called IC50 is the point on the concentration scale where inhibition reaches its midpoint.

Consider `COc1ccc(CNC(=O)C(CC(C)C)Oc2ccc(C#N)c(C(F)(F)F)c2)cn1` (centres unmarked) [Example 72, 2-(4-Cyano-3-trifluoromethyl-phenoxy)-4-methyl-pentanoic acid-(6-methoxy-pyridin-3-yl-methyl)-amide], for which the results for the IC50 (in assay [1] (read-out: AR Binding IC50); on androgen receptor (setting [2])) were 82 nM and 251 nM, respectively.

Take `CC(C)C[C@@H](Oc1ccc(C#N)c(C(F)(F)F)c1)C(=O)NCCc1ccc(O)cc1` [Example 111]: the concentration for half-maximal inhibition (IC50) is 148 nM in assay [1] (read-out: AR Binding IC50) and 164 nM at androgen receptor (setting [2]).

Consider `CC(C)CC(Oc1ccc(C#N)c(C(F)(F)F)c1)C(=O)NCc1ccc2c(c1)CCO2` (centres unmarked) [Example 25, 2-(4-Cyano-3-trifluoromethyl-phenoxy)-4-methyl-pentanoic acid (2,3-dihydro-benzofuran-5-yl-methyl)-amide], for which the IC50 is 67 nM in assay [1] (read-out: AR Binding IC50) and 798 nM on androgen receptor (setting [2]).

`CCCC(Oc1ccc(C#N)c(Cl)c1)C(=O)NCCc1ccc(O)cc1` (centres unmarked) [Example 103, 2-(3-Chloro-4-cyano-phenoxy)-pentanoic acid [2-(4-hydroxy-phenyl)-ethyl]-amide]: the IC50 came to 140 nM in assay [1] (read-out: AR Binding IC50) and 87 nM at androgen receptor (setting [3]).

Turning to `COc1ccc(CCNC(=O)C(CC(C)C)Oc2ccc(C#N)c(C(F)(F)F)c2)cc1` (centres unmarked) [Example 34, 2-(4-Cyano-3-trifluoromethyl-phenoxy)-4-methyl-pentanoic acid [2-(4-methoxyphenyl)-ethyl]amide], the IC50 is 68 nM in assay [1] (read-out: AR Binding IC50) and above 1000 nM at androgen receptor (setting [2]).

Turning to `CC(C)CNC(=O)C(CC(C)C)Oc1ccc(C#N)c(C(F)(F)F)c1` (centres unmarked) [Example 8, 2-(4-Cyano-3-trifluoromethyl-phenoxy)-4-methyl-pentanoic acid isobutyl-amide], the IC50 was 58 nM in assay [1] (read-out: AR Binding IC50) and 534 nM on androgen receptor (setting [2]).

As for `COc1ccc([C@H](C)NC(=O)C(CC(C)C)Oc2ccc(C#N)c(C(F)(F)F)c2)cc1` (stereo in doubt) [Example 121, 2-(4-Cyano-3-trifluoromethyl-phenoxy)-4-methyl-pentanoic acid [1-(4-methoxy-phenyl)-ethyl]-amide], the IC50 in assay [1] (read-out: AR Binding IC50) was 145 nM; on androgen receptor (setting [2]), 157 nM.

On to `CCCC(Oc1ccc(C#N)c(C(F)(F)F)c1)C(=O)NC(C)c1ccc(OC)cc1` (centres unmarked) [Example 113, 2-(4-Cyano-3-trifluoromethyl-phenoxy)-pentanoic acid [1-(4-methoxy-phenyl)-ethyl]-amide], for which the IC50 in assay [1] (read-out: AR Binding IC50) was 654 nM; on androgen receptor (setting [2]), 681 nM.

As for `CCC(COC)NC(=O)C(CC(C)C)Oc1ccc(C#N)c(C(F)(F)F)c1` (centres unmarked) [Example 82, 2-(4-Cyano-3-trifluoromethyl-phenoxy)-4-methyl-pentanoic acid (1-methoxymethyl-propyl)-amide], the values for the IC50 (in assay [1] (read-out: AR Binding IC50); on androgen receptor (setting [2])) were 218 nM and above 1000 nM, respectively.

In the case of `CCCC(Oc1ccc(C#N)c(Cl)c1)C(=O)NCc1ccccc1` (centres unmarked) [Example 102, 2-(3-Chloro-4-cyano-phenoxy)-pentanoic acid benzylamide], the IC50 is 125 nM in assay [1] (read-out: AR Binding IC50) and 27 nM on androgen receptor (setting [3]).

As to `CC(C)CC(Oc1ccc(C#N)c(C(F)(F)F)c1)C(=O)N[C@H](C)c1ccc(O)cc1` (stereo in doubt) [Example 117, 2-(4-Cyano-3-trifluoromethyl-phenoxy)-4-methyl-pentanoic acid [1-(4-hydroxy-phenyl)-ethyl]-amide], the IC50 in assay [1] (read-out: AR Binding IC50) was 114 nM; at androgen receptor (setting [3]), 19 nM.

Consider `CCCC(Oc1ccc(C#N)c(C(F)(F)F)c1)C(=O)NCCc1cccc(OC)c1` (centres unmarked) [Example 64, 2-(4-Cyano-3-trifluoromethyl-phenoxy)-pentanoic acid-[2-(3-methoxy-phenyl)ethyl]-amide], for which the values for the IC50 (in assay [1] (read-out: AR Binding IC50); at androgen receptor (setting [2])) were 220 nM and above 1000 nM, respectively.

In the case of `CCC[C@@H](Oc1ccc(C#N)c(C(F)(F)F)c1)C(=O)NCc1ccccc1` [Example 95, (R)-2-(4-Cyano-3-trifluoromethyl-phenoxy)-pentanoic acid benzylamide], the IC50 was 126 nM in assay [1] (AR Binding IC50 (nM)) and 32 nM on androgen receptor (setting [2]).
